Reference: the CheMixHub ionic liquid set

Assay: xn = mol fraction of the nth substance listed

O=S(=O)([N-]S(=O)(=O)C(F)(F)F)C(F)(F)F.[Li+] + CC[n+]1ccn(C)c1.O=S(=O)([O-])C(F)(F)F + O
Conditions | electrical conductivity [S/m] | viscosity [mPa·s]
283 K, 101 kPa, x1 = 0.2649, x2 = 0.2649 | 0.36 | 96.6
283 K, 101 kPa, x1 = 0.4189, x2 = 0.2649 | 0.056 | –
283 K, 101 kPa, x1 = 0.5195, x2 = 0.3509 | 0.014 | –
293 K, 101 kPa, x1 = 0.2649, x2 = 0.2649 | 0.54 | 60.2
293 K, 101 kPa, x1 = 0.4189, x2 = 0.2649 | 0.1 | 410
293 K, 101 kPa, x1 = 0.5195, x2 = 0.3509 | 0.03 | –
293.15 K, 100 kPa, x1 = 0.2745, x2 = 0.3509 | – | 69.3
293.15 K, 100 kPa, x1 = 0.3106, x2 = 0.3509 | – | 87
293.15 K, 100 kPa, x1 = 0.3509, x2 = 0.3509 | – | 129
293.15 K, 100 kPa, x1 = 0.3868, x2 = 0.3509 | – | 190
293.15 K, 100 kPa, x1 = 0.4189, x2 = 0.3509 | – | 292
293.15 K, 100 kPa, x1 = 0.4478, x2 = 0.3509 | – | 428
293.15 K, 100 kPa, x1 = 0.474, x2 = 0.3509 | – | 611
293.15 K, 100 kPa, x1 = 0.4978, x2 = 0.3509 | – | 880
293.15 K, 100 kPa, x1 = 0.5195, x2 = 0.3509 | – | 1587
298.1 K, 101 kPa, x1 = 0.2649, x2 = 0.2649 | 0.65 | 48.9
298.1 K, 101 kPa, x1 = 0.4189, x2 = 0.2649 | 0.14 | 302
298.1 K, 101 kPa, x1 = 0.5195, x2 = 0.3509 | 0.042 | 1125
298.15 K, 100 kPa, x1 = 0.2745, x2 = 0.3509 | – | 55
298.15 K, 100 kPa, x1 = 0.3106, x2 = 0.3509 | – | 73.5
298.15 K, 100 kPa, x1 = 0.3509, x2 = 0.3509 | – | 102
298.15 K, 100 kPa, x1 = 0.3868, x2 = 0.3509 | – | 147
298.15 K, 100 kPa, x1 = 0.4189, x2 = 0.3509 | – | 219
298.15 K, 100 kPa, x1 = 0.4478, x2 = 0.3509 | – | 316
298.15 K, 100 kPa, x1 = 0.474, x2 = 0.3509 | – | 439
298.15 K, 100 kPa, x1 = 0.4978, x2 = 0.3509 | – | 618
298.15 K, 100 kPa, x1 = 0.5195, x2 = 0.3509 | – | 1082
303 K, 101 kPa, x1 = 0.2649, x2 = 0.2649 | 0.77 | 40.2
303 K, 101 kPa, x1 = 0.4189, x2 = 0.2649 | 0.17 | 227
303 K, 101 kPa, x1 = 0.5195, x2 = 0.3509 | 0.057 | 789
303.15 K, 100 kPa, x1 = 0.2745, x2 = 0.3509 | – | 44.4
303.15 K, 100 kPa, x1 = 0.3106, x2 = 0.3509 | – | 59.3
303.15 K, 100 kPa, x1 = 0.3509, x2 = 0.3509 | – | 81.4
303.15 K, 100 kPa, x1 = 0.3868, x2 = 0.3509 | – | 115
303.15 K, 100 kPa, x1 = 0.4189, x2 = 0.3509 | – | 166
303.15 K, 100 kPa, x1 = 0.4478, x2 = 0.3509 | – | 238
303.15 K, 100 kPa, x1 = 0.474, x2 = 0.3509 | – | 326
303.15 K, 100 kPa, x1 = 0.4978, x2 = 0.3509 | – | 452
303.15 K, 100 kPa, x1 = 0.5195, x2 = 0.3509 | – | 770
313 K, 101 kPa, x1 = 0.2649, x2 = 0.2649 | 1.05 | 28
313 K, 101 kPa, x1 = 0.4189, x2 = 0.2649 | 0.27 | 138
313 K, 101 kPa, x1 = 0.5195, x2 = 0.3509 | 0.1 | 418
313.15 K, 100 kPa, x1 = 0.2745, x2 = 0.3509 | – | 30.6
313.15 K, 100 kPa, x1 = 0.3106, x2 = 0.3509 | – | 40.1
313.15 K, 100 kPa, x1 = 0.3509, x2 = 0.3509 | – | 54.2
313.15 K, 100 kPa, x1 = 0.3868, x2 = 0.3509 | – | 75.3
313.15 K, 100 kPa, x1 = 0.4189, x2 = 0.3509 | – | 104
313.15 K, 100 kPa, x1 = 0.4478, x2 = 0.3509 | – | 144
313.15 K, 100 kPa, x1 = 0.474, x2 = 0.3509 | – | 191
313.15 K, 100 kPa, x1 = 0.4978, x2 = 0.3509 | – | 255
313.15 K, 100 kPa, x1 = 0.5195, x2 = 0.3509 | – | 413
323 K, 101 kPa, x1 = 0.2649, x2 = 0.2649 | 1.38 | 20.4
323 K, 101 kPa, x1 = 0.4189, x2 = 0.2649 | 0.4 | 87.4
323 K, 101 kPa, x1 = 0.5195, x2 = 0.3509 | 0.16 | 243
323.15 K, 100 kPa, x1 = 0.2745, x2 = 0.3509 | – | 22.1
323.15 K, 100 kPa, x1 = 0.3106, x2 = 0.3509 | – | 28.7
323.15 K, 100 kPa, x1 = 0.3509, x2 = 0.3509 | – | 37.6
323.15 K, 100 kPa, x1 = 0.3868, x2 = 0.3509 | – | 49.3
323.15 K, 100 kPa, x1 = 0.4189, x2 = 0.3509 | – | 63.9
323.15 K, 100 kPa, x1 = 0.4478, x2 = 0.3509 | – | 92.9
323.15 K, 100 kPa, x1 = 0.474, x2 = 0.3509 | – | 120
323.15 K, 100 kPa, x1 = 0.4978, x2 = 0.3509 | – | 155
323.15 K, 100 kPa, x1 = 0.5195, x2 = 0.3509 | – | 239
333 K, 101 kPa, x1 = 0.2649, x2 = 0.2649 | 1.76 | 15.3
333 K, 101 kPa, x1 = 0.4189, x2 = 0.2649 | 0.56 | 58
333 K, 101 kPa, x1 = 0.5195, x2 = 0.3509 | 0.24 | 149
333.15 K, 100 kPa, x1 = 0.2745, x2 = 0.3509 | – | 16.5
333.15 K, 100 kPa, x1 = 0.3106, x2 = 0.3509 | – | 21.2
333.15 K, 100 kPa, x1 = 0.3509, x2 = 0.3509 | – | 27.2
333.15 K, 100 kPa, x1 = 0.3868, x2 = 0.3509 | – | 34.1
333.15 K, 100 kPa, x1 = 0.4189, x2 = 0.3509 | – | 44
333.15 K, 100 kPa, x1 = 0.4478, x2 = 0.3509 | – | 56.7
333.15 K, 100 kPa, x1 = 0.474, x2 = 0.3509 | – | 80
333.15 K, 100 kPa, x1 = 0.4978, x2 = 0.3509 | – | 102
333.15 K, 100 kPa, x1 = 0.5195, x2 = 0.3509 | – | 150
343.15 K, 100 kPa, x1 = 0.2745, x2 = 0.3509 | – | 12.7
343.15 K, 100 kPa, x1 = 0.3106, x2 = 0.3509 | – | 16.1
343.15 K, 100 kPa, x1 = 0.3509, x2 = 0.3509 | – | 19.6
343.15 K, 100 kPa, x1 = 0.3868, x2 = 0.3509 | – | 25.1
343.15 K, 100 kPa, x1 = 0.4189, x2 = 0.3509 | – | 31.6
343.15 K, 100 kPa, x1 = 0.4478, x2 = 0.3509 | – | 39.9
343.15 K, 100 kPa, x1 = 0.474, x2 = 0.3509 | – | 51.1
343.15 K, 100 kPa, x1 = 0.4978, x2 = 0.3509 | – | 64.1
343.15 K, 100 kPa, x1 = 0.5195, x2 = 0.3509 | – | 91.5
353.15 K, 100 kPa, x1 = 0.2745, x2 = 0.3509 | – | 10
353.15 K, 100 kPa, x1 = 0.3106, x2 = 0.3509 | – | 12.6
353.15 K, 100 kPa, x1 = 0.3509, x2 = 0.3509 | – | 15.1
353.15 K, 100 kPa, x1 = 0.3868, x2 = 0.3509 | – | 19
353.15 K, 100 kPa, x1 = 0.4189, x2 = 0.3509 | – | 23.6
353.15 K, 100 kPa, x1 = 0.4478, x2 = 0.3509 | – | 29.2
353.15 K, 100 kPa, x1 = 0.474, x2 = 0.3509 | – | 36.7
353.15 K, 100 kPa, x1 = 0.4978, x2 = 0.3509 | – | 45.9
353.15 K, 100 kPa, x1 = 0.5195, x2 = 0.3509 | – | 58
363.15 K, 100 kPa, x1 = 0.2745, x2 = 0.3509 | – | 7.98
363.15 K, 100 kPa, x1 = 0.3106, x2 = 0.3509 | – | 10
363.15 K, 100 kPa, x1 = 0.3509, x2 = 0.3509 | – | 11.9
363.15 K, 100 kPa, x1 = 0.3868, x2 = 0.3509 | – | 14.8
363.15 K, 100 kPa, x1 = 0.4189, x2 = 0.3509 | – | 18.1
363.15 K, 100 kPa, x1 = 0.4478, x2 = 0.3509 | – | 22.1
363.15 K, 100 kPa, x1 = 0.474, x2 = 0.3509 | – | 27.3
363.15 K, 100 kPa, x1 = 0.4978, x2 = 0.3509 | – | 33.8
363.15 K, 100 kPa, x1 = 0.5195, x2 = 0.3509 | – | 41.6
